From paper PMC13249053, “Mechanism of auranofin toxicity: Inhibition of tetrahydrobiopterin metabolism” (Toxicology and applied pharmacology, 2025)
Read-outs that look alike come from different tables or passages of the source.

Legend:
SPR [1] = biological target: T1, SPR (Homo sapiens, UniProt P35270); assay: Cellular SPR activity: BH2 formation from sepiapterin in the presence of methotrexate, human cell lines; assay type: cell-based; parameters: endogenous in cells; host or cells: HaCaT, Jurkat, BeWo, SKNMC, CX-1
T1 sequence (P35270 whole entry): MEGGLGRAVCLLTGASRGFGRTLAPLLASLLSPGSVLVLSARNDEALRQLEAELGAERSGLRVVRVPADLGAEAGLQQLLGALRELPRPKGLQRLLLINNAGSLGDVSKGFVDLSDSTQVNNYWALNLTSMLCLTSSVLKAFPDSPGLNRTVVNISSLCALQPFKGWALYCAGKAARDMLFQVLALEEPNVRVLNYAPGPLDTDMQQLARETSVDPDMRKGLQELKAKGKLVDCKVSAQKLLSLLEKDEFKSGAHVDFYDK

SPR [2] = biological target: T2, SPR (Mus musculus, UniProt Q64105); assay: Cellular SPR activity: BH2 formation from sepiapterin in the presence of methotrexate, RAW264.7 cells; assay type: cell-based; settings: RAW264.7 (mouse macrophage); with methotrexate
T2 construct: endogenous in cells; host or cells: RAW264.7
T2 sequence (Q64105 whole entry): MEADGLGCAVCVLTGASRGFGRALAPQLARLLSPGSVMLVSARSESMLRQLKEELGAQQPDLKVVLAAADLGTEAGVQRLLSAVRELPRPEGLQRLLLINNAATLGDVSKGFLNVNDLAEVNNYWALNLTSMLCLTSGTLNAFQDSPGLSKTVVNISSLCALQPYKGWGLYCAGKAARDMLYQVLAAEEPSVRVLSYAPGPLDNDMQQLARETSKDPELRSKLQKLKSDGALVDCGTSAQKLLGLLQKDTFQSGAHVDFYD
Experimental: (§1) The growth medium was then removed and the cells incubated with growth medium containing 100 μM sepiapterin. […] BH2 and BH4 were then analyzed on a Jasco high-performance liquid chromatography system (Easton, MD) fitted with a Maxsil-10 C18 column (250 × 4 mm; Phenomenex, Torrance, CA). […] Cell viability following drug treatments was greater than 95 %.

DHFR [3] = biological target: T3, DHFR (Mus musculus, UniProt P00375); assay: Cellular DHFR activity: BH4 formation from BH2, RAW264.7 cells; assay type: cell-based; settings: RAW264.7 (mouse macrophage)
T3 construct: endogenous in cells; host or cells: RAW264.7
T3 sequence (P00375 1-187): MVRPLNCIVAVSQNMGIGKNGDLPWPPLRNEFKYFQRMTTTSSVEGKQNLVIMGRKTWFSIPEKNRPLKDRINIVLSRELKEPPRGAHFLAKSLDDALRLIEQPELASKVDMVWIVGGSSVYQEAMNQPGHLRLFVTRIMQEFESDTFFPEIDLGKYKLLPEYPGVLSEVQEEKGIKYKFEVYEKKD
Experimental: as §1

SPR [4] = biological target: T1, SPR; assay: BH2 and BH4 production from sepiapterin in intact HaCaT cells (HPLC); assay type: cell-based; parameters: endogenous in cells; host or cells: HaCaT, Jurkat, BeWo, SKNMC, CX-1; settings: auranofin 2 h, then 100 μM sepiapterin 3 h, read-out: IC50, inhibition of SPR (BH2+BH4 formation) in intact HaCaT cells
Experimental: as §1
(§2) Fig. 3. Effects of auranofin on BH2 and BH4 production in intact HaCaT cells treated with sepiapterin. HaCaT cells (~1 × 10^6 cells/well in 6 well culture plates) were incubated with control medium or medium containing increasing concentrations of auranofin for 2 h followed by 100 μM sepiapterin. After an additional 3 h, BH2 and BH4 were extracted from the cells and analyzed by HPLC with fluorescence detection. Left panel: Chromatograms showing BH2 and BH4 content of control cells and cells treated with Auranofin.

DHFR [5] = biological target: T4, DHFR (Homo sapiens, UniProt P00374); assay: Cellular DHFR activity: BH4 formation from BH2, human cell lines; assay type: cell-based; parameters: endogenous in cells; host or cells: HaCaT, Jurkat, BeWo, SKNMC, CX-1
T4 sequence (P00374 1-187): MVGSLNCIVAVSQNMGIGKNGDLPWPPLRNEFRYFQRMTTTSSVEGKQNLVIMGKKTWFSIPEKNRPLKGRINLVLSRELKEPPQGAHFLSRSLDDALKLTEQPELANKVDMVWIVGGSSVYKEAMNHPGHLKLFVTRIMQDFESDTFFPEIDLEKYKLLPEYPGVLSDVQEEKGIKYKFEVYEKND
Experimental: Metabolic products of sepiapterin (BH2 and BH4) in intact cells and cell lysates were measured using HPLC as previously described ([Ferre and Naylor, 1988]) with some modifications ([Yang et al., 2013]; [Yang et al., 2015]). Briefly, cells in six-well culture dishes were grown until 60–70 % confluent (~1 × 10^6 cells/well). The growth medium was then removed and the cells incubated with growth medium containing 100 μM sepiapterin. After 3 h, cells were harvested, centrifuged (1500 g, 10 min), and pellets suspended in 200 μl of lysis buffer (50 mM Tris-HCl, pH 7.4, 137 mM NaCl, 0.5 % Nonidet P-40 (NP-40), 0.5 mM EDTA) for 20 min on ice. […] Thirty min later, 50 μl of 1 M H3PO4 was added to the supernatants and the precipitated proteins removed by centrifugation (15,000 g, 3 min). After standing for 10 min at room temperature, excess iodine was reduced by the addition of 25 μl of 57 mM ascorbic acid to the reaction mix. BH2 and BH4 were then analyzed on a Jasco high-performance liquid chromatography system (Easton, MD) fitted with a Maxsil-10 C18 column (250 × 4 mm; Phenomenex, Torrance, CA). Fluorescence was monitored using a Jasco FP-2020 spectrofluorometer with excitation and emission wavelengths set at 362 and 435 nm, respectively ([Yang et al., 2013]; [Yang et al., 2015]).
Fig. 8. […] DHFR enzyme activity in the cells was assayed by the metabolism of BH2 to BH4. Upper panels. HaCaT cells were treated with control medium or medium containing increasing concentrations of auranofin for 2 h followed by the addition of 200 μM BH2. After an additional 3 h, cells were rinsed with PBS and BH2 and BH4 analyzed by HPLC as described in the Materials and Methods. Lower panels. […] Cells were treated with the drug for increasing periods of time (0–2 h) followed by 200 μM BH2. After an additional 3 h, cells were rinsed with PBS and analyzed for BH2 and BH4 content.

[6] = tested on: BH4 formation in HaCaT cells; assay: BH4 formation from sepiapterin in intact HaCaT cells (HPLC); assay type: cell-based, human; settings: intact HaCaT cells; auranofin 2 h, then 100 μM sepiapterin 3 h; read-out: IC50, inhibition of BH4 formation in intact HaCaT cells
Experimental: as §1, §2
Fig. 6. […] Cells were treated with control medium or medium containing MTX (1 μM, 2 h), an inhibitor of DHFR, followed by 200 μM sepiapterin (upper panel) or BH2 (lower panel). After an additional 3 h incubation, cells were rinsed with PBS; BH2 and BH4 were then extracted and analyzed by HPLC as described in the Materials and Methods.

`CC[PH](CC)(CC)[Au][S][C@@H]1O[C@H](COC(C)=O)[C@@H](OC(C)=O)[C@H](OC(C)=O)[C@H]1OC(C)=O` [auranofin, 2,3,4,6-tetra-O-acetyl-1-thio-β-D-glucopyranosato-S-triethyl phosphine gold] showed an IC50 (SPR [1]; BeWo (human choriocarcinoma), with methotrexate, read-out: SPR IC50, BeWo cells) of 8.9 ± 0.64 µM, an IC50 (SPR [1]; CX-1 (human colon adenocarcinoma), with methotrexate, read-out: SPR IC50, CX-1 cells) of 25.1 ± 1.03 µM and an IC50 (SPR [1]; HaCaT (human keratinocytes), with MTX 1 μM, auranofin 2 h, then 200 μM sepiapterin 3 h, listed as Auranofin, read-out: SPR IC50, HaCaT cells) of 10.7 µM. For the same compound, the IC50 (SPR [1]; HaCaT (human keratinocytes), with MTX 1 μM, auranofin 2 h, then 200 μM sepiapterin 3 h, read-out: SPR IC50, HaCaT cells) was 10.7 ± 0.9 µM, the “time of pretreatment to maximum inhibition of cellular SPR” value (SPR [1]; HaCaT cells with methotrexate, 20 μM auranofin) was 2 h and the IC50 (SPR [1]; Jurkat (human leukemia), with methotrexate, read-out: SPR IC50, Jurkat cells) was 7.2 ± 0.17 µM. For the same compound, the IC50 (SPR [1]; SKNMC (human neuroblastoma), with methotrexate, read-out: SPR IC50, SKNMC cells) was 17.7 ± 1.54 µM, the IC50 (SPR [2]) was 21.3 ± 1.58 µM and the IC50 (DHFR [3]) was 17.2 ± 0.63 µM. It also gave an IC50 (SPR [4]) of 12.8 µM, an IC50 (DHFR [5]; BeWo (human choriocarcinoma), BH4 formation from BH2, read-out: DHFR IC50, BeWo cells) of 3.9 ± 0.15 µM and an IC50 (DHFR [5]; CX-1 (human colon adenocarcinoma), BH4 formation from BH2, read-out: DHFR IC50, CX-1 cells) of 7.3 ± 0.1 µM. The IC50 (DHFR [5]; HaCaT (human keratinocytes), auranofin 2 h, then 200 μM BH2 3 h, read-out: DHFR IC50, HaCaT cells) was 6.3 ± 0.75 µM, the “time of pretreatment to maximal inhibition of cellular DHFR” value (DHFR [5]; HaCaT cells, 20 μM auranofin) was 2 h and the IC50 (DHFR [5]; Jurkat (human leukemia), BH4 formation from BH2, read-out: DHFR IC50, Jurkat cells) was 5.4 ± 0.07 µM. It also gave an IC50 (DHFR [5]; SKNMC (human neuroblastoma), BH4 formation from BH2, read-out: DHFR IC50, SKNMC cells) of 15.2 ± 0.53 µM and an IC50 [6] of 7.9 µM.
